According to article PMC8942850, “Boron clusters as broadband membrane carriers” (Nature, 2022):
Where two headings read alike, the source gives them in different places. Residues, ends and D or L forms follow the SMILES beside them.

Columns and labels:
[1] = HPTS/DPX transport assay in zwitterionic EYPC vesicles; type: in vitro ADME; set-up: key to Et: Et = Ymax × (pEC50/ft); pEC50 = −log EC50; settings: for Et transport efficiency: Et = Ymax × (pEC50/ft), ft = 19.8 so that WR7 equals 10.0, B12Br12^2− (40 μM) carrier, 5% error (SD) unless stated; for Ymax (%) maximal activity, transport of cargo / EC50: cargo concentration varied, B12Br12^2− (40 μM) as common carrier, EYPC⊃HPTS/DPX vesicles, pH 7.4, Hill analysis, 10% error (SD) unless stated, n.t. = no detectable transport; for Ymax (%) maximal activity, transport of cargo: 13 µM lipid, 10 mM Tris, 107 mM NaCl, HPTS fluorescence; for EC50: read-out: EC50 (μM) effective cargo concentration to reach 50% of Ymax
Experimental: The well-established HPTS/DPX assay, which uses 8-hydroxypyrene-1,3,6-trisulfonate (HPTS) and p-xylene-bis-pyridinium (DPX), was implemented to monitor peptide-transport activation (Fig. 2a). […] A surfactant (Triton X-100) was added at the end of the experiment (t = 600 s) to release all vesicle content and normalize the fluorescence intensity data.
Fig. 2 Carrier activity obtained from the HPTS/DPX assay. a, Schematic representation of the transport of otherwise impermeable analytes facilitated by superchaotropic cluster anions with encapsulated HPTS/DPX probe/quencher pair used for signalling. […] Concentrations of carrier and cargo, when fixed, were 40 and 20 µM, respectively, unless explicitly stated. Source data
A thin lipid film was prepared by evaporating a lipid solution with a stream of nitrogen and then dried in vacuo overnight.
Fluorescence intensities were normalized to fractional emission as I(t) = (It − I0)/(I∞ − I0), where I0 = It before cluster addition and I∞ = It after lysis.
In the activator measurements, in which different activators were tested with the same cargo, the activator efficiency (Ea) is determined from their ability to activate the transport of an impermeable cargo molecule and is characterized by Ymax, its maximal activity, and EC50, the effective activator concentration. A potent activator reaches high Ymax at low EC50. To reflect both factors, the activator efficiency is defined as Ea = Ymax × (pEC50/fa), where pEC50 is the negative logarithm of EC50.
In the transport measurements, in which different types of cargo were tested with the same activator, the transport efficiency (Et) reports on the sensitivity of the cargo for being transported and is described by Ymax, the maximal activity, and EC50, the effective cargo concentration. An easily accessible cargo reaches high Ymax at low EC50. The transport efficiency is defined as a composition of both parameters according to Et = Ymax × (pEC50/ft), where pEC50 is the negative logarithm of EC50.
Extended Data Fig. 3 Transport activity. a, Transport activity, Y, in EYPC⊃HPTS/DPX vesicles as a function of cluster concentration at constant cargo concentration (WR7, 20 µM). b, Transport activity, Y, for B12Br12^2− (40 µM) in EYPC⊃HPTS/DPX vesicles as a function of the concentration of different cargo types; red lines correspond to the resulting fit with the Hill equation. Source data

HeLa cells = experiment: MTT viability with MMAF in absence or presence of B12Br12^2−; type: cell-based; settings: for mean_viability: cluster 0, mean of three technical replicates; for IC50: MMAF
Experimental: The incubation mixtures were replaced with DMEM + 10% FBS + 0.5 mg ml^–1 MTT. For the viability assays in the presence of B12Br12^2− or R8, HeLa, GT1-7, ARPE-19 and A549 cells were seeded the day before in 96-well plates at 6,000 cells per well. Cells were incubated with B12Br12^2− or R8 dissolved in HKR buffer for 3 h and, thereafter, incubated for 24 h with complete medium before incubating with complete medium and 0.5 mg ml^−1 MTT. For viability studies in the presence of MMAF, HeLa cells were incubated with MMAF and B12Br12^2− diluted in DMEM (without serum or antibiotics) for 3 h. Cells were washed with 0.1 mg ml^−1 heparin and further incubated for 21 h in complete medium and 2 h in complete medium containing 0.5 mg ml^−1 MTT. For all types of assays, after 2 h of incubation, the medium was carefully removed, and formazan crystals dissolved by addition of DMSO. The absorbance at 570 nm was measured with a plate reader (Tecan Infinite F200Pro) and the data normalized to the value of untreated cells (100% viability). Data were analysed with R (v. 4.0.3)[54].
Solid points indicate mean ± s.d. of three technical replicates. […] Cross-bars indicate mean ± s.d. of three independent experiments (two with technical triplicates, one with technical duplicates); values obtained in each experiment are represented by different shapes. c, Viability […] Solid points indicate mean ± s.d. of three technical replicates. d, Corresponding IC50 values of MMAF. Cross-bars indicate mean ± s.d. of four independent experiments, each with technical triplicates; each experiment is represented by a different shape. e, E. coli Top10 viability in the presence of different concentrations of kanamycin A monosulphate (0–3.5 μg/mL) and B12Br12^2− (0–1,000 μM) in LB broth at 37 °C; data are mean ± s.d. of triplicate measurements. Source data

Molecule | Et transport efficiency [1] | Et ([1]; Fig.2 d, per analyte (cargo)) | Ymax (%) maximal activity, transport of cargo [1] | EC50 [1] | Et [1] | also measured
N[C@@H](Cc1ccccc1)C(=O)O [Phenylalanine] | 0.5 ± 0.2 | 0.5 | 10 ± 4% | 109 µM | – | –
CNC(=C[N+](=O)[O-])NCCSCc1ccc(CN(C)C)o1 [Ranitidine, reference compound] | 3.9 | 3.9 | 70% | 75.9 µM | – | –
N[C@@H](Cc1c[nH]c2ccccc12)C(=O)O [Tryptophan] | 9.6 | – | 72% | 2.4 µM | 9.6 | –
CC(=O)O[C@H]1C[C@@H]2CC[C@@H]3[C@H](CC[C@@]4(C)[C@H]3C[C@H]([N+]3(C)CCCCC3)[C@@H]4OC(C)=O)[C@@]2(C)C[C@@H]1N1CCCCC1 [Vecuronium, reference compound] | 3.5 | – | 64% | 50.6 µM | 3.5 | –
CC(=O)OCC[N+](C)(C)C [Acetylcholine, acetylcholine] | 7.0 | 7 | 75% | 13.8 µM | – | –
Cc1ncc(C[n+]2csc(CCO)c2C)c(N)n1 [Vitamin B1] | 6.5 | 6.5 | 73% | 16.6 µM | – | –
CC1(C)S[C@@H]2[C@H](NC(=O)[C@H](N)c3ccccc3)C(=O)N2[C@H]1C(=O)O [Ampicillin, ampicillin, reference compound] | 4.5 | – | 74% | 63 µM | 4.5 | –
CC[C@H](C)[C@@H]([C@@H](CC(=O)N1CCC[C@H]1[C@H](OC)[C@@H](C)C(=O)N[C@@H](Cc1ccccc1)C(=O)O)OC)N(C)C(=O)[C@@H](NC(=O)[C@@H](NC)C(C)C)C(C)C [MMAF, monomethyl auristatin F] (HELM PEPTIDE1{[meV].V.[CC[C@H](C)[C@@H]([C@@H](CC(=O)[*:2])OC)N(C)[*:1]].[CO[C@H]([C@@H](C)C(=O)[*:2])[C@@H]1CCCN1[*:1]].F}$$$$V2.0) | – | – | – | – | – | mean_viability (HeLa cells; MMAF 39.0625 nM): 103.936; percent_viability (HeLa cells; MMAF 39.0625 nM, cluster 0, technical replicate 1): 103.03; percent_viability (HeLa cells; MMAF 39.0625 nM, cluster 0, technical replicate 2): 107.013; percent_viability (HeLa cells; MMAF 39.0625 nM, cluster 0, technical replicate 3): 101.765; mean_viability (HeLa cells; MMAF 78.125 nM): 83.7598; percent_viability (HeLa cells; MMAF 78.125 nM, cluster 0, technical replicate 1): 94.8234; IC50 (HeLa cells; cluster 0, 3 h in DMEM + 21 h medium, experiment_2, read-out: IC50): 1210 nM; IC50 (HeLa cells; cluster 0, 3 h in DMEM + 21 h medium, experiment_3, read-out: IC50): 1290 nM; IC50 (HeLa cells; cluster 0, 3 h in DMEM + 21 h medium, experiment_4, read-out: IC50): 1410 nM; IC50 (HeLa cells; cluster 0, 3 h in DMEM + 21 h medium, mean of four independent experiments, read-out: mean_IC50): 1210 nM; IC50 (HeLa cells; cluster 5 µM as printed, 3 h in DMEM + 21 h medium, experiment_1, read-out: IC50): 512 nM; IC50 (HeLa cells; cluster 5 µM as printed, 3 h in DMEM + 21 h medium, experiment_2, read-out: IC50): 709 nM; IC50 (HeLa cells; cluster 5 µM as printed, 3 h in DMEM + 21 h medium, experiment_3, read-out: IC50): 905 nM; IC50 (HeLa cells; cluster 5 µM as printed, 3 h in DMEM + 21 h medium, experiment_4, read-out: IC50): 870 nM; IC50 (HeLa cells; cluster 10 µM as printed, 3 h in DMEM + 21 h medium, experiment_1, read-out: IC50): 467 nM; IC50 (HeLa cells; cluster 10 µM as printed, 3 h in DMEM + 21 h medium, experiment_2, read-out: IC50): 568 nM; IC50 (HeLa cells; cluster 10 µM as printed, 3 h in DMEM + 21 h medium, experiment_3, read-out: IC50): 660 nM; IC50 (HeLa cells; cluster 10 µM as printed, 3 h in DMEM + 21 h medium, experiment_4, read-out: IC50): 583 nM; IC50 (HeLa cells; cluster (B12Br12^2−) 5 mM as printed, 3 h in DMEM + 21 h medium, mean of four independent experiments, read-out: mean_IC50): 749 nM; IC50 (HeLa cells; cluster (B12Br12^2−) 10 mM as printed, 3 h in DMEM + 21 h medium, mean of four independent experiments, read-out: mean_IC50): 569 nM
protamine | 10.0 | 10 | 76% | 2.4 µM | – | –
phalloidin [reference compound] | 2.3 ± 0.3 | – | 90 ± 10% | 310 ± 70 µM | 2.3 | –
